Laboratory results published in patent US11713309B2, “Solid forms of Cerdulatinib” (Alexion Pharmaceuticals, Inc., priority 2018, dated 2023).
≈ marks a conversion by molar mass, not a printed value.

Legend:
Assay type in all cases: physicochemical
[1] = Kinetic solubility in SGF; conditions: for Solubility (mg/mL) 1 h / Solubility (mg/mL) 2 h / Solubility (mg/mL) 4 h / Solubility (mg/mL) 24 h: 37° C.; for Solubility (mg/mL) 1 h: drug loading ~10 mg/mL as freebase; for pH 1 h / pH 2 h / pH 4 h / pH 24 h: supernatant, SGF (native pH 1.8)
Description: (§1) Kinetic solubility testing was conducted as follows: About 40-55 mg material was weighed into a 5-mL EP pipe. 4 mL of water/bio-relevant media (SGF, FaSSIF, or FeSSIF) was added into the corresponding sample pipe (drug loading: ˜10 mg/mL calculated as freebase). The pipes were capped tightly and the material was verified to be in contact with the media. The sample vials were placed on a roller and start rolling at 37° C. (rate: 25 r/min). Samples were taken at 1, 2, 4, 24 h. For each time point, 1.0 mL of suspension was transferred into a 2-mL centrifuge tube and the samples were centrifuged. The supernatant was filtered via 0.45 μm PTFE membrane and solubility and pH were measured. An XRPD test on residual solids was conducted.

[2] = Kinetic solubility in water; conditions: 37° C.; for pH of supernatant: water (native pH 7.6); for Final Form of residual solids (XRPD) / Kinetic solubility: water
Description: as §1

[3] = Kinetic solubility in FeSSIF; conditions: for Solubility (mg/mL) 1 h / Solubility (mg/mL) 2 h / Solubility (mg/mL) 4 h / Solubility (mg/mL) 24 h: 37° C.; for Solubility (mg/mL) 1 h: drug loading ~10 mg/mL as freebase; for pH 1 h / pH 2 h / pH 4 h / pH 24 h: supernatant
Description: as §1

[4] = Kinetic solubility in FaSSIF; conditions: for Solubility (mg/mL) 1 h / Solubility (mg/mL) 2 h / Solubility (mg/mL) 4 h / Solubility (mg/mL) 24 h: 37° C.; for Solubility (mg/mL) 1 h: drug loading ~10 mg/mL as freebase; for pH 1 h / pH 2 h / pH 4 h / pH 24 h: supernatant, FaSSIF (native pH 6.5)
Description: as §1

[5] = 1 h, listed as Isethionate Type A
[6] = 2 h, listed as Isethionate Type A
[7] = 4 h, listed as Isethionate Type A
[8] = 24 h, listed as Isethionate Type A

CCS(=O)(=O)N1CCN(c2ccc(Nc3ncc(C(N)=O)c(NC4CC4)n3)cc2)CC1 [Compound I isethionate Type A, 4-(cyclopropylamino)-2-(4-(4-(ethylsulfonyl)piperazin-1-yl)phenylamino)pyrimidine-5-carboxamide]
Solubility (mg/mL) 1 h ([1]; SGF, 1 h, listed as Isethionate Type A): 0.077 mg/mL
Solubility (mg/mL) 2 h ([1]; SGF, 2 h, listed as Isethionate Type A): 0.081 mg/mL
Solubility (mg/mL) 4 h ([1]; SGF, 4 h, listed as Isethionate Type A): 0.073 mg/mL
Solubility (mg/mL) 24 h ([1]; SGF, 24 h, listed as Isethionate Type A): 0.069 mg/mL
pH 1 h [1, 5]: 1.9
pH 2 h [1, 6]: 1.9
pH 4 h [1, 7]: 2.1
pH 24 h [1, 8]: 2.0
pH of supernatant [2, 5]: 2.1
pH of supernatant [2, 6]: 2.0
pH of supernatant [2, 7]: 2.1
pH of supernatant [2, 8]: 2.1
Final Form of residual solids (XRPD) ([2]; 1 h, 2 h, 4 h, 24 h, listed as Isethionate Type A): Freebase Form II
Kinetic solubility [2, 5]: 1500 µg/mL
Kinetic solubility [2, 6]: 1300 µg/mL
Kinetic solubility [2, 7]: 1300 µg/mL
Kinetic solubility [2, 8]: 1200 µg/mL
Solubility (mg/mL) 1 h [3, 5]: 0.0058 mg/mL
Solubility (mg/mL) 2 h [3, 6]: 0.0053 mg/mL
Solubility (mg/mL) 4 h [3, 7]: 0.0052 mg/mL
Solubility (mg/mL) 24 h [3, 8]: 0.0054 mg/mL
Final Form ([3]; XRPD of residual solids, 1 h, 2 h, 4 h, 24 h (merged cell), listed as Isethionate Type A): Freebase Form II
pH 1 h [3, 5]: 4.6
pH 2 h [3, 6]: 4.7
pH 4 h [3, 7]: 4.7
pH 24 h [3, 8]: 4.6
Solubility (mg/mL) 1 h ([4]; FaSSIF, 1 h, listed as Isethionate Type A): 0.020 mg/mL
Solubility (mg/mL) 2 h ([4]; FaSSIF, 2 h, listed as Isethionate Type A): 0.026 mg/mL
Solubility (mg/mL) 4 h ([4]; FaSSIF, 4 h, listed as Isethionate Type A): 0.018 mg/mL
Solubility (mg/mL) 24 h ([4]; FaSSIF, 24 h, listed as Isethionate Type A): 0.015 mg/mL
pH 1 h [4, 5]: 3.9
pH 2 h [4, 6]: 3.9
pH 4 h [4, 7]: 3.9
pH 24 h [4, 8]: 3.9

CCS(=O)(=O)N1CCN(c2ccc(Nc3ncc(C(N)=O)c(NC4CC4)n3)cc2)CC1 [Compound I esylate Type A, 4-(cyclopropylamino)-2-(4-(4-(ethylsulfonyl)piperazin-1-yl)phenylamino)pyrimidine-5-carboxamide]
Solubility (mg/mL) 1 h ([1]; SGF, 1 h, listed as Esylate Type A): 0.092 mg/mL (≈ 206 µM)
Solubility (mg/mL) 2 h ([1]; SGF, 2 h, listed as Esylate Type A): 0.10 mg/mL (≈ 224 µM)
Solubility (mg/mL) 4 h ([1]; SGF, 4 h, listed as Esylate Type A): 0.087 mg/mL (≈ 195 µM)
Solubility (mg/mL) 24 h ([1]; SGF, 24 h, listed as Esylate Type A): 0.083 mg/mL (≈ 186 µM)
Final Form ([1]; XRPD of residual solids, SGF, 1 h, 2 h, 4 h, 24 h): HC1 salt Form I
pH 1 h ([1]; 1 h, listed as Esylate Type A): 2.1
pH 2 h ([1]; 2 h, listed as Esylate Type A): 1.9
pH 4 h ([1]; 4 h, listed as Esylate Type A): 2.1
pH 24 h ([1]; 24 h, listed as Esylate Type A): 1.9
pH of supernatant ([2]; 1 h, listed as Esylate Type A): 2.3
pH of supernatant ([2]; 2 h, listed as Esylate Type A): 2.0
pH of supernatant ([2]; 4 h, listed as Esylate Type A): 2.2
pH of supernatant ([2]; 24 h, listed as Esylate Type A): 2.1
Final Form of residual solids (XRPD) ([2]; 1 h, 2 h, 4 h, 24 h, listed as Esylate Type A): Freebase Form II
Kinetic solubility ([2]; 1 h, listed as Esylate Type A): 1700 µg/mL
Kinetic solubility ([2]; 2 h, listed as Esylate Type A): 1500 µg/mL
Kinetic solubility ([2]; 4 h, listed as Esylate Type A): 1400 µg/mL
Kinetic solubility ([2]; 24 h, listed as Esylate Type A): 1300 µg/mL
Solubility (mg/mL) 1 h ([3]; 1 h, listed as Esylate Type A): 0.060 mg/mL (≈ 135 µM)
Solubility (mg/mL) 2 h ([3]; 2 h, listed as Esylate Type A): 0.027 mg/mL (≈ 60.6 µM)
Solubility (mg/mL) 4 h ([3]; 4 h, listed as Esylate Type A): 0.014 mg/mL (≈ 31.4 µM)
Solubility (mg/mL) 24 h ([3]; 24 h, listed as Esylate Type A): 0.011 mg/mL (≈ 24.7 µM)
Final Form 2 h, 4 h, 24 h ([3]; XRPD of residual solids, 2 h, 4 h, 24 h): Freebase Form II
pH 1 h ([3]; 1 h, listed as Esylate Type A): 4.8
pH 2 h ([3]; 2 h, listed as Esylate Type A): 4.7
pH 4 h ([3]; 4 h, listed as Esylate Type A): 4.7
pH 24 h ([3]; 24 h, listed as Esylate Type A): 4.4
Solubility (mg/mL) 1 h ([4]; FaSSIF, 1 h, listed as Esylate Type A): 0.015 mg/mL (≈ 33.7 µM)
Solubility (mg/mL) 2 h ([4]; FaSSIF, 2 h, listed as Esylate Type A): 0.012 mg/mL (≈ 26.9 µM)
Solubility (mg/mL) 4 h ([4]; FaSSIF, 4 h, listed as Esylate Type A): 0.024 mg/mL (≈ 53.9 µM)
Solubility (mg/mL) 24 h ([4]; FaSSIF, 24 h, listed as Esylate Type A): 0.0040 mg/mL (≈ 8.98 µM)
Final Form ([4]; XRPD of residual solids, FaSSIF, 1 h, 2 h, 4 h, 24 h): Freebase Form II
pH 1 h ([4]; 1 h, listed as Esylate Type A): 5.2
pH 2 h ([4]; 2 h, listed as Esylate Type A): 5.0
pH 4 h ([4]; 4 h, listed as Esylate Type A): 4.3
pH 24 h ([4]; 24 h, listed as Esylate Type A): 3.8
